Experimental data: ChEMBL document CHEMBL1201862, “PubChem BioAssay data set” (2004)
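The compound was tested at five concentrations on cells cultured in 96-well plates, with a 48-hour exposure period. Here, GI50 denotes the concentration required for 50% inhibition of growth.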 Activity calls are given as the source filed them. Cut-off read from the data, not from the text of the source: active = GI50 up to about 1.1 µM and inactive = higher.

What was measured:
Test in all cases: NCI anticancer screen, dose series, 48 h
HCC 2998 = system: HCC 2998
NCI-H460 = system: NCI-H460
T47D = system: T47D
UACC-257 = system: UACC-257
MDA-MB-435 = system: MDA-MB-435
MDA-N = system: MDA-N
OVCAR-8 = system: OVCAR-8
Malme-3M = system: Malme-3M
TK-10 = system: TK-10
OVCAR-4 = system: OVCAR-4
DU-145 = system: DU-145
SK-MEL-5 = system: SK-MEL-5
Hs-578T = system: Hs-578T
NCI-H226 = system: NCI-H226
HL-60 = system: HL-60
COLO 205 = system: COLO 205
ACHN = system: ACHN
NCI/ADR-RES = system: NCI/ADR-RES
HCT-116 = system: HCT-116
RXF 393 = system: RXF 393
CCRF-CEM = system: CCRF-CEM
MOLT-4 = system: MOLT-4
SK-OV-3 = system: SK-OV-3
SNB-75 = system: SNB-75
HOP-62 = system: HOP-62
OVCAR-5 = system: OVCAR-5
HT-29 = system: HT-29
OVCAR-3 = system: OVCAR-3
PC-3 = system: PC-3
SK-MEL-2 = system: SK-MEL-2
M14 = system: M14
SR = system: SR
RPMI-8226 = system: RPMI-8226
A549 = system: A549
IGROV-1 = system: IGROV-1
786-0 = system: 786-0
U-251 = system: U-251
NCI-H522 = system: NCI-H522
BT-549 = system: BT-549
SN12C = system: SN12C
KM12 = system: KM12
EKVX = system: EKVX
LOX IMVI = system: LOX IMVI
MDA-MB-231 = system: MDA-MB-231
NCI-H23 = system: NCI-H23
SW-620 = system: SW-620
HCT-15 = system: HCT-15
SF-539 = system: SF-539
CAKI-1 = system: CAKI-1
SNB-19 = system: SNB-19
UO-31 = system: UO-31
MCF7 = system: MCF7
SF-295 = system: SF-295
HOP-92 = system: HOP-92
K562 = system: K562
SK-MEL-28 = system: SK-MEL-28
A498 = system: A498
SF-268 = system: SF-268
UACC-62 = system: UACC-62

Q: `COc1cc2cc(C(=O)Nc3cc4n(n3)-c3ccccc3C4)[nH]c2c(OC)c1OC` was tested. Which GI50 (HCC 2998) did it give?
A: 10.4 µM (inactive)

Q: What about the GI50 (NCI-H460) of the same molecule?
A: 1.64 µM (inactive)

Q: And the GI50 (T47D)?
A: 0.883 µM (active)

Q: And the GI50 (UACC-257)?
A: 2.9 µM (inactive)

Q: And the GI50 (MDA-MB-435)?
A: 1.44 µM (inactive)

Q: What about the GI50 (MDA-N) of the same molecule?
A: 2.35 µM (inactive)

Q: And the GI50 (OVCAR-8)?
A: 1.26 µM (inactive)

Q: And the GI50 (Malme-3M)?
A: 1.29 µM (inactive)

Q: What about the GI50 (TK-10) of the same molecule?
A: 1.85 µM (inactive)

Q: And the GI50 (OVCAR-4)?
A: 1.24 µM (inactive)

Q: What about the GI50 (DU-145) of the same molecule?
A: 6.73 µM (inactive)

Q: What about the GI50 (SK-MEL-5) of the same molecule?
A: 1.41 µM (inactive)

Q: And the GI50 (Hs-578T)?
A: 2.98 µM (inactive)

Q: What about the GI50 (NCI-H226) of the same molecule?
A: 1.22 µM (inactive)

Q: What about the GI50 (HL-60) of the same molecule?
A: 2.25 µM (inactive)

Q: And the GI50 (COLO 205)?
A: 3.06 µM (inactive)

Q: And the GI50 (ACHN)?
A: 4.72 µM (inactive)

Q: And the GI50 (NCI/ADR-RES)?
A: 1.25 µM (inactive)

Q: And the GI50 (HCT-116)?
A: 2.73 µM (inactive)

Q: And the GI50 (RXF 393)?
A: 30.1 µM (inactive)

Q: What about the GI50 (CCRF-CEM) of the same molecule?
A: 1.38 µM (inactive)

Q: And the GI50 (MOLT-4)?
A: 1.03 µM (active)

Q: And the GI50 (SK-OV-3)?
A: 6.25 µM (inactive)

Q: And the GI50 (SNB-75)?
A: 5.83 µM (inactive)

Q: What about the GI50 (HOP-62) of the same molecule?
A: 2 µM (inactive)

Q: And the GI50 (OVCAR-5)?
A: 8.93 µM (inactive)

Q: And the GI50 (HT-29)?
A: 11.9 µM (inactive)

Q: What about the GI50 (OVCAR-3) of the same molecule?
A: 2.19 µM (inactive)

Q: And the GI50 (PC-3)?
A: 2.71 µM (inactive)

Q: And the GI50 (SK-MEL-2)?
A: 2.3 µM (inactive)

Q: What about the GI50 (M14) of the same molecule?
A: 2 µM (inactive)

Q: And the GI50 (SR)?
A: 2.26 µM (inactive)

Q: And the GI50 (RPMI-8226)?
A: 1.06 µM (active)

Q: And the GI50 (A549)?
A: 1.81 µM (inactive)

Q: And the GI50 (IGROV-1)?
A: 2.73 µM (inactive)

Q: What about the GI50 (786-0) of the same molecule?
A: 8.39 µM (inactive)

Q: What about the GI50 (U-251) of the same molecule?
A: 8.04 µM (inactive)

Q: And the GI50 (NCI-H522)?
A: 1.08 µM (active)

Q: And the GI50 (BT-549)?
A: 1.19 µM (inactive)

Q: What about the GI50 (SN12C) of the same molecule?
A: 8.79 µM (inactive)

Q: What about the GI50 (KM12) of the same molecule?
A: 1.85 µM (inactive)

Q: What about the GI50 (EKVX) of the same molecule?
A: 2.17 µM (inactive)

Q: And the GI50 (LOX IMVI)?
A: 4.68 µM (inactive)

Q: What about the GI50 (MDA-MB-231) of the same molecule?
A: 8.04 µM (inactive)

Q: What about the GI50 (NCI-H23) of the same molecule?
A: 2.75 µM (inactive)

Q: And the GI50 (SW-620)?
A: 7.08 µM (inactive)

Q: What about the GI50 (HCT-15) of the same molecule?
A: 2.52 µM

Q: What about the GI50 (SF-539) of the same molecule?
A: 7.08 µM (inactive)

Q: What about the GI50 (CAKI-1) of the same molecule?
A: 1.72 µM (inactive)

Q: What about the GI50 (SNB-19) of the same molecule?
A: 9.48 µM (inactive)

Q: What about the GI50 (UO-31) of the same molecule?
A: 1.97 µM (inactive)

Q: And the GI50 (MCF7)?
A: 2.58 µM (inactive)

Q: And the GI50 (SF-295)?
A: 3.4 µM (inactive)

Q: And the GI50 (HOP-92)?
A: 2.18 µM (inactive)

Q: And the GI50 (K562)?
A: 3.36 µM (inactive)

Q: What about the GI50 (SK-MEL-28) of the same molecule?
A: 3.72 µM (inactive)

Q: And the GI50 (A498)?
A: 23.4 µM (inactive)

Q: And the GI50 (SF-268)?
A: 6.19 µM (inactive)

Q: For `Nc1ccccc1CCCC(=O)O`, which GI50 (HCC 2998) is on record?
A: > 100 µM (inactive)

Q: And the GI50 (NCI-H460)?
A: > 100 µM (inactive)

Q: What about the GI50 (T47D) of the same molecule?
A: > 100 µM (inactive)

Q: What about the GI50 (UACC-257) of the same molecule?
A: > 100 µM (inactive)

Q: What about the GI50 (MDA-MB-435) of the same molecule?
A: > 100 µM (inactive)

Q: What about the GI50 (MDA-N) of the same molecule?
A: > 100 µM (inactive)

Q: What about the GI50 (UACC-62) of the same molecule?
A: > 100 µM (inactive)

Q: And the GI50 (OVCAR-8)?
A: > 100 µM (inactive)

Q: And the GI50 (Malme-3M)?
A: > 100 µM (inactive)

Q: What about the GI50 (TK-10) of the same molecule?
A: > 100 µM (inactive)

Q: What about the GI50 (OVCAR-4) of the same molecule?
A: > 100 µM (inactive)

Q: And the GI50 (DU-145)?
A: > 100 µM (inactive)

Q: What about the GI50 (SK-MEL-5) of the same molecule?
A: > 100 µM (inactive)

Q: And the GI50 (Hs-578T)?
A: > 100 µM (inactive)

Q: What about the GI50 (NCI-H226) of the same molecule?
A: > 100 µM (inactive)

Q: What about the GI50 (HL-60) of the same molecule?
A: 45.4 µM (inactive)

Q: What about the GI50 (COLO 205) of the same molecule?
A: > 100 µM (inactive)

Q: What about the GI50 (ACHN) of the same molecule?
A: > 100 µM (inactive)

Q: What about the GI50 (NCI/ADR-RES) of the same molecule?
A: > 100 µM (inactive)

Q: What about the GI50 (HCT-116) of the same molecule?
A: > 100 µM (inactive)

Q: And the GI50 (RXF 393)?
A: > 100 µM (inactive)

Q: What about the GI50 (CCRF-CEM) of the same molecule?
A: > 100 µM (inactive)

Q: And the GI50 (MOLT-4)?
A: > 100 µM (inactive)

Q: And the GI50 (SK-OV-3)?
A: > 100 µM (inactive)

Q: And the GI50 (SNB-75)?
A: > 100 µM (inactive)

Q: What about the GI50 (HOP-62) of the same molecule?
A: > 100 µM (inactive)

Q: What about the GI50 (OVCAR-5) of the same molecule?
A: > 100 µM (inactive)

Q: And the GI50 (HT-29)?
A: > 100 µM (inactive)

Q: And the GI50 (OVCAR-3)?
A: > 100 µM (inactive)

Q: What about the GI50 (PC-3) of the same molecule?
A: > 100 µM (inactive)

Q: What about the GI50 (SK-MEL-2) of the same molecule?
A: > 100 µM (inactive)

Q: What about the GI50 (M14) of the same molecule?
A: > 100 µM (inactive)

Q: And the GI50 (SR)?
A: > 100 µM (inactive)

Q: What about the GI50 (RPMI-8226) of the same molecule?
A: > 100 µM (inactive)

Q: What about the GI50 (A549) of the same molecule?
A: > 100 µM (inactive)

Q: And the GI50 (IGROV-1)?
A: > 100 µM (inactive)

Q: And the GI50 (786-0)?
A: > 100 µM (inactive)

Q: What about the GI50 (U-251) of the same molecule?
A: > 100 µM (inactive)

Q: And the GI50 (NCI-H522)?
A: > 100 µM (inactive)

Q: What about the GI50 (BT-549) of the same molecule?
A: > 100 µM (inactive)

Q: And the GI50 (SN12C)?
A: > 100 µM (inactive)

Q: What about the GI50 (KM12) of the same molecule?
A: > 100 µM (inactive)

Q: And the GI50 (LOX IMVI)?
A: > 100 µM (inactive)

Q: What about the GI50 (MDA-MB-231) of the same molecule?
A: > 100 µM (inactive)

Q: And the GI50 (NCI-H23)?
A: > 100 µM (inactive)

Q: And the GI50 (SW-620)?
A: > 100 µM (inactive)

Q: And the GI50 (HCT-15)?
A: > 100 µM

Q: What about the GI50 (SF-539) of the same molecule?
A: > 100 µM (inactive)

Q: And the GI50 (CAKI-1)?
A: > 100 µM (inactive)

Q: What about the GI50 (SNB-19) of the same molecule?
A: > 100 µM (inactive)

Q: And the GI50 (UO-31)?
A: > 100 µM (inactive)

Q: And the GI50 (MCF7)?
A: > 100 µM (inactive)

Q: And the GI50 (SF-295)?
A: > 100 µM (inactive)

Q: What about the GI50 (HOP-92) of the same molecule?
A: > 100 µM (inactive)

Q: What about the GI50 (K562) of the same molecule?
A: > 100 µM (inactive)

Q: What about the GI50 (SK-MEL-28) of the same molecule?
A: > 100 µM (inactive)

Q: What about the GI50 (A498) of the same molecule?
A: > 100 µM (inactive)

Q: And the GI50 (SF-268)?
A: > 100 µM (inactive)
